Source: ChEMBL document CHEMBL4342442, “Usnic Acid Enaminone-Coupled 1,2,3-Triazoles as Antibacterial and Antitubercular Agents” (J Nat Prod, 2020)
pIC50: −log10 of the molar value. Active and inactive are the calls of the source. The calls are words filed in the database; no cut-off is given here.

Key:
[1] = system: Mycobacterium tuberculosis; assay: Antitubercular activity against Mycobacterium tuberculosis H37Rv assessed as reduction in microbial growth after 7 days by alamar blue assay; assay type: functional; settings: 168 h
[2] = system: Mycobacterium tuberculosis; assay: Antitubercular activity against Mycobacterium tuberculosis H37Rv assessed as log reduction in bacterial population at 10 ug/ml under starvation condition after 7 days by MPN assay; assay type: functional
Staphylococcus aureus [3] = assay: Antibacterial activity against Staphylococcus aureus MTCC 96 assessed as reduction in microbial growth after 24 hrs by CLSI based microdilution method; assay type: functional; settings: MTCC 96, 24 h
[4] = system: Staphylococcus epidermidis; assay: Antibacterial activity against Staphylococcus epidermidis assessed as reduction in microbial growth after 24 hrs by CLSI based microdilution method; assay type: functional
Bacillus subtilis [5] = assay: Antibacterial activity against Bacillus subtilis MTCC 441 assessed as reduction in microbial growth after 24 hrs by CLSI based microdilution method; assay type: functional; settings: MTCC 441, 24 h
Escherichia coli [6] = assay: Antibacterial activity against Escherichia coli MTCC 443 assessed as reduction in microbial growth after 24 hrs by CLSI based microdilution method; assay type: functional; settings: MTCC 443, 24 h
Pseudomonas aeruginosa [7] = assay: Antibacterial activity against Pseudomonas aeruginosa MTCC 741 assessed as reduction in microbial growth after 24 hrs by CLSI based microdilution method; assay type: functional; settings: MTCC 741, 24 h
Klebsiella pneumoniae [8] = assay: Antibacterial activity against Klebsiella pneumoniae MTCC 618 assessed as reduction in microbial growth after 24 hrs by CLSI based microdilution method; assay type: functional; settings: MTCC 618, 24 h
CHO-K1 = assay: Cytotoxicity against CHOK1 cells assessed as reduction in cell viability after 24 hrs by MTT assay; assay type: cell-based; settings: Cricetulus griseus, CHO-K1, 24 h
Staphylococcus aureus [9] = assay: Antibacterial activity against Staphylococcus aureus MTCC 96 assessed as diameter of zone of inhibition at 200 ug/ml after 24 hrs by agar well diffusion method; assay type: functional; settings: for zone of inhibition at 200 µg/mL: MTCC 96, 24 h, read-out: DIZ
[10] = system: Staphylococcus epidermidis; assay: Antibacterial activity against Staphylococcus epidermidis assessed as diameter of zone of inhibition at 200 ug/ml after 24 hrs by agar well diffusion method; assay type: functional; settings: for zone of inhibition at 200 µg/mL: read-out: DIZ
Bacillus subtilis [11] = assay: Antibacterial activity against Bacillus subtilis MTCC 441 assessed as diameter of zone of inhibition at 200 ug/ml after 24 hrs by agar well diffusion method; assay type: functional; settings: for zone of inhibition at 200 µg/mL: MTCC 441, 24 h, read-out: DIZ
Escherichia coli [12] = assay: Antibacterial activity against Escherichia coli MTCC 443 assessed as diameter of zone of inhibition at 200 ug/ml after 24 hrs by agar well diffusion method; assay type: functional; settings: for zone of inhibition at 200 µg/mL: MTCC 443, 24 h, read-out: DIZ
Pseudomonas aeruginosa [13] = assay: Antibacterial activity against Pseudomonas aeruginosa MTCC 741 assessed as diameter of zone of inhibition at 200 ug/ml after 24 hrs by agar well diffusion method; assay type: functional; settings: for zone of inhibition at 200 µg/mL: MTCC 741, 24 h, read-out: DIZ
Klebsiella pneumoniae [14] = assay: Antibacterial activity against Klebsiella pneumoniae MTCC 618 assessed as diameter of zone of inhibition at 200 ug/ml after 24 hrs by agar well diffusion method; assay type: functional; settings: for zone of inhibition at 200 µg/mL: MTCC 618, 24 h, read-out: DIZ

CC(=O)c1c(O)c(C)c(O)c2c1OC1=CC(=O)/C(=C(/C)NCc3cn(CC(=O)c4c5ccccc5cc5ccccc45)nn3)C(=O)C12C (stereo not given)
MIC [1]: 9.7 µM

COc1ccc2cc(C(=O)Cn3cc(CN/C(C)=C4\C(=O)C=C5Oc6c(C(C)=O)c(O)c(C)c(O)c6C5(C)C4=O)nn3)ccc2c1 (stereo not given)
MIC [1]: 40.2 µM

CC(=O)c1c(O)c(C)c(O)c2c1OC1=CC(=O)/C(=C(/C)NCc3cn(CC(=O)N4CCN(C/C=C/c5ccccc5)CC4)nn3)C(=O)C12C (stereo not given)
MIC [1]: 37.5 µM

CO[C@H]1/C=C/O[C@@]2(C)Oc3c(C)c(O)c4c(O)c(c(/C=N/N5CCN(C)CC5)c(O)c4c3C2=O)NC(=O)/C(C)=C\C=C\[C@H](C)[C@H](O)[C@@H](C)[C@@H](O)[C@@H](C)[C@H](OC(C)=O)[C@@H]1C [RIFAMPIN]
MIC [1]: 0.6 µM
FC [2]: 1.8

CC(=O)c1c(O)c(C)c(O)c2c1OC1=CC(=O)/C(=C(/C)NCc3cn(CC(=O)N4CCN(c5ccccn5)CC4)nn3)C(=O)C12C (stereo not given)
MIC [1]: 39.8 µM

CC(=O)c1c(O)c(C)c(O)c2c1OC1=CC(=O)/C(=C(/C)NCc3cn(CC(=O)c4ccc(C#N)cc4)nn3)C(=O)C12C (stereo not given)
MIC [1]: 44.1 µM

CC(=O)c1c(O)c(C)c(O)c2c1OC1=CC(=O)/C(=C(/C)NCc3cn(CC(=O)N4CCN(c5ccccc5Cl)CC4)nn3)C(=O)C12C (stereo not given)
MIC [1]: 37.8 µM
MIC (Staphylococcus aureus [3]): > 350 µM
MIC [4]: > 350 µM
MIC (Bacillus subtilis [5]): 302 µM
MIC (Escherichia coli [6]): > 350 µM
MIC (Pseudomonas aeruginosa [7]): > 350 µM
MIC (Klebsiella pneumoniae [8]): > 350 µM

CC[C@@H](CO)NCCN[C@@H](CC)CO [ETHAMBUTOL]
MIC [1]: 7.6 µM

CC(=O)c1c(O)c(C)c(O)c2c1OC1=CC(=O)/C(=C(/C)NCc3cn(CC(=O)c4ccccc4)nn3)C(=O)C12C (stereo not given)
MIC [1]: 46.1 µM

CC(=O)c1c(O)c(C)c(O)c2c1OC1=CC(=O)/C(=C(/C)NCc3cn(CC(=O)N4CCN(c5ccccc5F)CC4)nn3)C(=O)C12C (stereo not given)
MIC [1]: 9.7 µM

COc1c(N2C[C@@H]3CCCN[C@@H]3C2)c(F)cc2c(=O)c(C(=O)O)cn(C3CC3)c12 [MOXIFLOXACIN]
FC [2]: 2

CC(=O)c1c(O)c(C)c(O)c2c1OC1=CC(=O)/C(=C(/C)NCc3cn(CC(=O)c4ccc(Cl)s4)nn3)C(=O)C12C (stereo not given)
MIC [1]: 42.9 µM

CC(=O)c1c(O)c(C)c(O)c2c1OC1=CC(=O)/C(=C(/C)NCc3cn(CC(=O)c4ccc(Br)s4)nn3)C(=O)C12C (stereo not given)
MIC [1]: 39.8 µM

O=C(O)c1cn(C2CC2)c2cc(N3CCNCC3)c(F)cc2c1=O [CIPROFLOXACIN]
FC [2]: 1.8

CC(=O)c1c(O)c(C)c(O)c2c1OC1=CC(=O)/C(=C(/C)NCc3cn(CC(=O)c4ccc(Cl)cc4)nn3)C(=O)C12C (stereo not given)
MIC [1]: 10.8 µM

CC(=O)c1c(O)c(C)c(O)c2c1OC1=CC(=O)/C(=C(/C)NCc3cn(CC(=O)N4CCN(C(=O)OC(C)(C)C)CC4)nn3)C(=O)C12C (stereo not given)
MIC [1]: 38.4 µM

CO[C@@]12[C@H](COC(N)=O)C3=C(C(=O)C(C)=C(N)C3=O)N1C[C@@H]1N[C@@H]12 [MITOMYCIN]
pIC50 (CHO-K1): 4.40

COc1cccc(C(=O)Cn2cc(CN/C(C)=C3\C(=O)C=C4Oc5c(C(C)=O)c(O)c(C)c(O)c5C4(C)C3=O)nn2)c1 (stereo not given)
MIC [1]: 43.7 µM

CC(=O)c1c(O)c(C)c(O)c2c1OC1=CC(=O)/C(=C(/C)NCc3cn(CC(=O)N4CCN(c5ccc(C(F)(F)F)cc5)CC4)nn3)C(=O)C12C (stereo not given)
MIC [1]: 36 µM

CC(=O)c1c(O)c(C)c(O)c2c1OC1=CC(=O)/C(=C(/C)NCc3cn(CC(=O)c4cccs4)nn3)C(=O)C12C (stereo not given)
MIC [1]: 45.6 µM

CC(=O)c1c(O)c(C)c(O)c2c1OC1=CC(=O)/C(=C(/C)NCc3cn(CC(=O)c4cccc5ccccc45)nn3)C(=O)C12C (stereo not given)
MIC [1]: 42.2 µM

NNC(=O)c1ccncc1 [ISONIAZID]
MIC [1]: 2.9 µM
FC [2]: 1.5

COc1ccc(C(=O)Cn2cc(CN/C(C)=C3\C(=O)C=C4Oc5c(C(C)=O)c(O)c(C)c(O)c5C4(C)C3=O)nn2)cc1 (stereo not given)
MIC [1]: 43.7 µM

CC(=O)c1c(O)c(C)c(O)c2c1OC1=CC(=O)/C(=C(/C)NCc3cn(CC(=O)c4nccs4)nn3)C(=O)C12C (stereo not given)
MIC [1]: 45.5 µM

CC(=O)c1c(O)c(C)c(O)c2c1OC1=CC(=O)/C(=C(/C)NCc3cn(CC(=O)c4ccc5c(c4)Cc4ccccc4-5)nn3)C(=O)C12C (stereo not given)
MIC [1]: 9.9 µM

CC(=O)c1c(O)c(C)c(O)c2c1OC1=CC(=O)/C(=C(/C)NCc3cn(CC(=O)c4ccc([N+](=O)[O-])cc4)nn3)C(=O)C12C (stereo not given)
MIC [1]: 42.6 µM

CC(=O)c1c(O)c(C)c(O)c2c1OC1=CC(=O)/C(=C(/C)NCc3cn(CC(=O)c4ccc(F)cc4)nn3)C(=O)C12C (stereo not given)
MIC [1]: 11.2 µM
MIC (Staphylococcus aureus [3]): > 350 µM
MIC [4]: > 350 µM
MIC (Bacillus subtilis [5]): 347 µM
MIC (Escherichia coli [6]): > 350 µM
MIC (Pseudomonas aeruginosa [7]): > 350 µM
MIC (Klebsiella pneumoniae [8]): > 350 µM

CC(=O)c1c(O)c(C)c(O)c2c1OC1=CC(=O)/C(=C(/C)NCc3cn(CC(=O)N4CCN(c5ccccc5)CC4)nn3)C(=O)C12C (stereo not given)
MIC [1]: 39.9 µM

CC(=O)c1c(O)c(C)c(O)c2c1OC1=CC(=O)/C(=C(/C)NCc3cn(CC(=O)c4ccc(Cl)c(Cl)c4)nn3)C(=O)C12C (stereo not given)
MIC [1]: 40.9 µM

CC1(C)S[C@@H]2[C@H](NC(=O)Cc3ccccc3)C(=O)N2[C@H]1C(=O)O [PENICILLIN G]
zone of inhibition at 200 µg/mL (Staphylococcus aureus [9]): 28 mm
zone of inhibition at 200 µg/mL [10]: 26 mm
zone of inhibition at 200 µg/mL (Bacillus subtilis [11]): 28 mm
zone of inhibition at 200 µg/mL (Escherichia coli [12]): 24 mm
zone of inhibition at 200 µg/mL (Pseudomonas aeruginosa [13]): 23 mm
zone of inhibition at 200 µg/mL (Klebsiella pneumoniae [14]): 25 mm
MIC (Staphylococcus aureus [3]): 3.5 µM
MIC [4]: 7 µM
MIC (Bacillus subtilis [5]): 3.5 µM
MIC (Escherichia coli [6]): 27.8 µM
MIC (Pseudomonas aeruginosa [7]): 27.8 µM
MIC (Klebsiella pneumoniae [8]): 27.8 µM

CC(=O)c1c(O)c(C)c(O)c2c1OC1=CC(=O)/C(=C(/C)NCc3cn(CC(=O)N4CCSCC4)nn3)C(=O)C12C (stereo not given)
MIC [1]: 44 µM
diameter of the inhibition zone (DIZ) (Staphylococcus aureus [9]): inactive
diameter of the inhibition zone (DIZ) [10]: inactive
diameter of the inhibition zone (DIZ) (Bacillus subtilis [11]): inactive
diameter of the inhibition zone (DIZ) (Escherichia coli [12]): inactive
diameter of the inhibition zone (DIZ) (Pseudomonas aeruginosa [13]): inactive
diameter of the inhibition zone (DIZ) (Klebsiella pneumoniae [14]): inactive
MIC (Staphylococcus aureus [3]): > 350 µM
MIC [4]: > 350 µM
MIC (Bacillus subtilis [5]): > 350 µM
MIC (Escherichia coli [6]): > 350 µM
MIC (Pseudomonas aeruginosa [7]): > 350 µM
MIC (Klebsiella pneumoniae [8]): > 350 µM

CC(=O)C1=C(O)C=C2Oc3c(C(C)=O)c(O)c(C)c(O)c3C2(C)C1=O (stereo not given)
MIC [1]: 35.6 µM

CN[C@@H]1[C@H](O[C@H]2[C@H](O[C@H]3[C@H](O)[C@@H](O)[C@H](N=C(N)N)[C@@H](O)[C@@H]3N=C(N)N)O[C@@H](C)[C@]2(O)C=O)O[C@@H](CO)[C@H](O)[C@H]1O [STREPTOMYCIN]
zone of inhibition at 200 µg/mL (Staphylococcus aureus [9]): 23 mm
zone of inhibition at 200 µg/mL [10]: 25 mm
zone of inhibition at 200 µg/mL (Bacillus subtilis [11]): 24 mm
zone of inhibition at 200 µg/mL (Escherichia coli [12]): 23 mm
zone of inhibition at 200 µg/mL (Pseudomonas aeruginosa [13]): 28 mm
zone of inhibition at 200 µg/mL (Klebsiella pneumoniae [14]): 26 mm
MIC (Staphylococcus aureus [3]): 4 µM
MIC [4]: 4 µM
MIC (Bacillus subtilis [5]): 8.1 µM
MIC (Escherichia coli [6]): 8.1 µM
MIC (Pseudomonas aeruginosa [7]): 8.1 µM
MIC (Klebsiella pneumoniae [8]): 8.1 µM

CC(=O)c1c(O)c(C)c(O)c2c1OC1=CC(=O)/C(=C(/C)NCc3cn(CC(=O)c4ccc(-c5ccccc5)cc4)nn3)C(=O)C12C (stereo not given)
MIC [1]: 48.2 µM

CC(=O)c1c(O)c(C)c(O)c2c1OC1=CC(=O)/C(=C(/C)NCc3cn(CC(=O)c4ccc(C(F)(F)F)cc4)nn3)C(=O)C12C (stereo not given)
MIC [1]: 41 µM

CC(=O)c1c(O)c(C)c(O)c2c1OC1=CC(=O)/C(=C(/C)NCc3cn(CC(=O)c4cc5ccccc5s4)nn3)C(=O)C12C (stereo not given)
MIC [1]: 41.8 µM

CC(=O)c1c(O)c(C)c(O)c2c1OC1=CC(=O)/C(=C(/C)NCc3cn(CC(=O)c4ccc(OC(F)(F)F)cc4)nn3)C(=O)C12C (stereo not given)
MIC [1]: 39.9 µM
